Test results as given in US10471076B2, “Compositions and methods to treat vision disorders” (YouHealth Biotech, Limited, priority 2014, dated 2019).
Where “and” joins values, the source holds several entries; their conditions need not be identical. Equal entries are not always repeated.

Legend:
[1] = target: T1, αA-crystallin (Y118D) aggregates (Homo sapiens, UniProt P02489, Y118D); experiment: Serial live-cell imaging, single-particle tracking of aggregates; format: cell-based; details: human lens progenitor cells; 40 mM sterol in 1% DMSO for 4 h
T1 construct: expressed in transfected cells; host or cells: human lens progenitor cells, G418-selected
T1 sequence (P02489 1-173 Y118D): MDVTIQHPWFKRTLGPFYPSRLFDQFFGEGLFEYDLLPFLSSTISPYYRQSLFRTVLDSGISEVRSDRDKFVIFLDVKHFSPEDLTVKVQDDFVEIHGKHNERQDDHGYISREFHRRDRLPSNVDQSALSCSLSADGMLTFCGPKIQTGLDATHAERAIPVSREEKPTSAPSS
Experimental: Live-cell imaging. Human lens progenitor cells were transfected with plasmids containing αA-crystallin (Y118D) mutant. After a 24 h transfection period, the cells with stable expression of αA-crystallin (Y118D) mutant were screen by incubation in culture medium containing 0.8 mg ml^−1 G418 for 7 days. Then the obtained cells were seeded onto glass bottom cell culture dishes (In Vitro Scientific) and treated with 1% DMSO, 40 mM cholesterol in 1% DMSO or 40 mM lanosterol in 1% DMSO for 4 h. Fresh culture medium was added, and the cells were analysed by serial live-cell imaging. Live-cell images were viewed with an Olympus IX81 microscope and captured with CellSens Dimension soft-ware (Olympus). Quantitative analysis of the size of aggregates was performed by measuring the fluorescence intensity of p62-positive aggregates using single-par-tide tracking in live-cell imaging. The live-cell imaging was conducted using three biological replicates with 1-8 repetitions each.

dog eyes with cataracts = experiment: Treatment of cataractous lenses in dogs in vivo; parameters: key to cataract grade before treatment, treatment group / cataract grade after treatment, treatment group: Grade 0: absence of opacification (no cataract); Grade 1: a slight degree of opacification (incipient stage); Grade 2: presence of diffuse opacification involving almost the entire lens (immature stage); Grade 3: presence of extensive, thick opacification involving the entire lens (mature stage)
Experimental: Preparation of drug-loaded nanoparticles. Lanosterol was loaded into a lipid-polymer hybrid nanoparticle through an adapted nanoprecipitation method^34. In brief, the desired concentration of lanosterol was mixed with polycaprolactone (PCL) polymer dissolved in acetonitrile. Lecithin and 1,2-distearoyl-sn-glycero-3-phosphoethanolamine-N-carboxy(polyethylene glycol) 2000 (DSPE-PEG-COOH) were dissolved in a 4% ethanol aqueous solution at 20% of the PCL polymer weight and heated above 60° C. The lanosterol/PCL solution was then added into the preheated lipid solution under gentle stirring followed by rigorous vortexing for 3 min. The mixture solution was then stirred for 2 h to allow the nanoparticles to form and the acetonitrile to evaporate. Next, the nanoparticle solution was washed three times using an Amicon Ultra-4 centrifugal filter (Millipore) with a molecular weight cut-off of 10 kDa to remove the remaining organic solvent and free molecules. The resulting nanoparticles were then re-suspended in PBS buffer for sub-sequent use. The size, size distribution, and surface zeta potential of the drug-loaded nanoparticles were characterized by dynamic light scattering. The loading yield of lanosterol was quantified by high-performance liquid chromatography.
Treatment of cataractous lenses in dogs. To assess the effect of lanosterol treatment on cataracts in live animals, dogs were pre-medicated with intramuscular injections of acepromaxine and butorphanol. After 20 min, induction of anaesthesia was performed by application of intravenous propofol. Dogs were then immediately intubated and maintained on oxygen and 2% isoflurane at […]. Lanosterol (100 mg)-loaded nanoparticles were initially injected into the vitreous cavity in the test eye using a 28-gauge needle, and then were given every 3 days for the duration of the experiment. Treatment eyes or sham eyes were randomized. […] Degree of cataract severity was assessed by a blinded examiner and scored based on canine cataract stage, shown below^35. Improvements in lens clarity and transparency were quantified. […]

Structure (SMILES): CC(C)=CCC[C@@H](C)[C@H]1CC[C@@]2(C)C3=C(CC[C@]12C)[C@@]1(C)CC[C@H](O)C(C)(C)[C@@H]1CC3 [lanosterol, 3β-Hydroxy-8,24-lanostadiene; 8,24-Lanostadien-3β-ol]
- effect on αA-crystallin (Y118D) aggregates in live cells [1]: could effectively diminish crystallin aggregates
- cataract grade before treatment, treatment group (dog eyes with cataracts; dog study eye, baseline, n=7): 1 and 2 and 3
- cataract grade after treatment, treatment group (dog eyes with cataracts; dog study eye, intravitreal lanosterol (100 mg)-loaded nanoparticles every 3 days plus 25 mM lanosterol eye drops three times daily, 6 weeks, n=7): 0 and 1
- cataract severity / lens clarity (dog eyes with cataracts; dogs in vivo, 6 weeks of lanosterol, P<0.009, Wilcoxon Test): significantly reduced cataract severity and increased lens clarity
